These results are taken from ChEMBL document CHEMBL5653615 (J Biol Chem, 2013).

The target in assay [1] is Casein kinase II subunit alpha' (Homo sapiens) (UniProt P19784). As to the kind of experiment: Inhibition of human CK2a2 at 500 nM by HotSpot assay relative to control.
The target of assay [2] is T1, Phosphorylase b kinase gamma catalytic chain, liver/testis isoform (Homo sapiens) (UniProt P15735).
T1 sequence (whole entry): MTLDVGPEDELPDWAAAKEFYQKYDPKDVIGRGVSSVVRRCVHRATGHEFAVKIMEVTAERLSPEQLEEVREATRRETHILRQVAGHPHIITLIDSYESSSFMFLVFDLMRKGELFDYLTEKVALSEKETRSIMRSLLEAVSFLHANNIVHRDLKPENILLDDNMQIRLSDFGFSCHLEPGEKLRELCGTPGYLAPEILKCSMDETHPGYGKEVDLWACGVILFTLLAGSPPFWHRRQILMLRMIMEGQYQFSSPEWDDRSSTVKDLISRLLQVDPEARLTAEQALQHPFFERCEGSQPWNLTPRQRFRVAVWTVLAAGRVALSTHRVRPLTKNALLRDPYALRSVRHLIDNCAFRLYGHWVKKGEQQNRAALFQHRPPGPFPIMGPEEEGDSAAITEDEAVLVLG
The assay is described as follows: Inhibition of human PHKg2 at 500 nM by HotSpot assay relative to control.

The species named for assay [3] is Homo sapiens. As to the kind of experiment: Inhibition of human TAO1 at 500 nM by HotSpot assay relative to control.
A short description of assay [4]: Inhibition of unphosphorylated human Insulin receptor (978 to 1283 residues) C981S mutant kinase domain expressed in baculovirus infected Sf9 cells incubated for 1 hr by [gamma-33P]ATP assay.
Assay [5] addresses T2, Rhodopsin kinase GRK7 (Homo sapiens) (UniProt Q8WTQ7).
T2 sequence (whole entry): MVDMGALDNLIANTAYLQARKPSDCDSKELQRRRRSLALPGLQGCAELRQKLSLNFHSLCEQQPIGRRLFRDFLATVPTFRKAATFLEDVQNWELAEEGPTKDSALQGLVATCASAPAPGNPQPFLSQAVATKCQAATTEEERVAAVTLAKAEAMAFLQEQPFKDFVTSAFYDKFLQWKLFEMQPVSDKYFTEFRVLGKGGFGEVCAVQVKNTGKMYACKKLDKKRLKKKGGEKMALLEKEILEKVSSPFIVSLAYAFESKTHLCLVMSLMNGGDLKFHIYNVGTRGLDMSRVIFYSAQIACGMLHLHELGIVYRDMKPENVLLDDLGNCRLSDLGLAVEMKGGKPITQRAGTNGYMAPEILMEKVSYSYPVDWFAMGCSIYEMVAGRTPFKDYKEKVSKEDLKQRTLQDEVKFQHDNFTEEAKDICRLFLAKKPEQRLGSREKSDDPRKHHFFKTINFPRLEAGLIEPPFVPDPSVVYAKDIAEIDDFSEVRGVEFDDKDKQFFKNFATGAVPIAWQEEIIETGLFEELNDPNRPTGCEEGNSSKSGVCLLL
As to the kind of experiment: Inhibition of human GRK7 at 500 nM by HotSpot assay relative to control.

Assay [6] addresses Serine/threonine-protein kinase OSR1 (Homo sapiens) (UniProt O95747). As to the kind of experiment: Inhibition of human OXSR1 at 500 nM by HotSpot assay relative to control.
Assay [7] deals with STE20/SPS1-related proline-alanine-rich protein kinase (Homo sapiens) (UniProt Q9UEW8). The assay is described as follows: Inhibition of human STLK3 at 500 nM by HotSpot assay relative to control.
The target in assay [8] is Tyrosine-protein kinase ABL2 (Homo sapiens) (UniProt P42684). As to the kind of experiment: Inhibition of human ABL2 at 500 nM by HotSpot assay relative to control.
Tyrosine-protein kinase ABL2 (Homo sapiens), sequence (P42684 whole entry): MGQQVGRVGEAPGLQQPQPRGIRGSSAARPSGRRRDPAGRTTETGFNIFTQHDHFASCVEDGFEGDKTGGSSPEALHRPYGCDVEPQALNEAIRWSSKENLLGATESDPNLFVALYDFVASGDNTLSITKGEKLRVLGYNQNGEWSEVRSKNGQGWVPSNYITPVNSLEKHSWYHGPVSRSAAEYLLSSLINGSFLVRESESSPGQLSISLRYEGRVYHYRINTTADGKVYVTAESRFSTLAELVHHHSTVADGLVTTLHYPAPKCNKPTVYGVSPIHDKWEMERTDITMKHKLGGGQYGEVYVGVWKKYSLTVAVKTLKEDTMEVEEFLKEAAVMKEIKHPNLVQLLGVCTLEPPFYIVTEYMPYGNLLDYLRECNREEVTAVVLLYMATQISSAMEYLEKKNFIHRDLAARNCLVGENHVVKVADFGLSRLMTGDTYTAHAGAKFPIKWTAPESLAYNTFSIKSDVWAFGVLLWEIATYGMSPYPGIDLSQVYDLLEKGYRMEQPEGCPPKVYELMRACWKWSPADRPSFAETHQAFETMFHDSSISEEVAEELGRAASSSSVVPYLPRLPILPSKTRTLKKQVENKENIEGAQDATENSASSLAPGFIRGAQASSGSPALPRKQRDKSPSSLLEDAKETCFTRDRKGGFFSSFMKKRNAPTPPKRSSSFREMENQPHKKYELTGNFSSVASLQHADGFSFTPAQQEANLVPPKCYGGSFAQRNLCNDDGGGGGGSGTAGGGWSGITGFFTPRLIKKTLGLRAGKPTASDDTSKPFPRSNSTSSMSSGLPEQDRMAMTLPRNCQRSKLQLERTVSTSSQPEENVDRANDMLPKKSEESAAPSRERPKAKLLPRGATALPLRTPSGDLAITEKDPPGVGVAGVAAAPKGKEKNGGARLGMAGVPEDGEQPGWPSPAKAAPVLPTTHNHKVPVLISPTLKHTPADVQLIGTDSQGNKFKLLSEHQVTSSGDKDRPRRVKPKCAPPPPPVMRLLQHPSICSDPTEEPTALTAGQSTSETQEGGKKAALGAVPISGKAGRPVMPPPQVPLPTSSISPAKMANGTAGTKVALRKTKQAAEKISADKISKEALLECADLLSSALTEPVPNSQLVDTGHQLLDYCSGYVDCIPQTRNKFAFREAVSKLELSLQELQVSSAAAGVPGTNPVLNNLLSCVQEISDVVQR
Assay [9] addresses RAC-beta serine/threonine-protein kinase (Homo sapiens) (UniProt P31751). As to the kind of experiment: Inhibition of human AKT2 at 500 nM by HotSpot assay relative to control.
For assay [10], the target named is Receptor tyrosine-protein kinase erbB-2 (Homo sapiens) (UniProt P04626). As to the kind of experiment: Inhibition of human ERBB2 at 500 nM by HotSpot assay relative to control.
Receptor tyrosine-protein kinase erbB-2 (Homo sapiens), sequence (P04626 whole entry): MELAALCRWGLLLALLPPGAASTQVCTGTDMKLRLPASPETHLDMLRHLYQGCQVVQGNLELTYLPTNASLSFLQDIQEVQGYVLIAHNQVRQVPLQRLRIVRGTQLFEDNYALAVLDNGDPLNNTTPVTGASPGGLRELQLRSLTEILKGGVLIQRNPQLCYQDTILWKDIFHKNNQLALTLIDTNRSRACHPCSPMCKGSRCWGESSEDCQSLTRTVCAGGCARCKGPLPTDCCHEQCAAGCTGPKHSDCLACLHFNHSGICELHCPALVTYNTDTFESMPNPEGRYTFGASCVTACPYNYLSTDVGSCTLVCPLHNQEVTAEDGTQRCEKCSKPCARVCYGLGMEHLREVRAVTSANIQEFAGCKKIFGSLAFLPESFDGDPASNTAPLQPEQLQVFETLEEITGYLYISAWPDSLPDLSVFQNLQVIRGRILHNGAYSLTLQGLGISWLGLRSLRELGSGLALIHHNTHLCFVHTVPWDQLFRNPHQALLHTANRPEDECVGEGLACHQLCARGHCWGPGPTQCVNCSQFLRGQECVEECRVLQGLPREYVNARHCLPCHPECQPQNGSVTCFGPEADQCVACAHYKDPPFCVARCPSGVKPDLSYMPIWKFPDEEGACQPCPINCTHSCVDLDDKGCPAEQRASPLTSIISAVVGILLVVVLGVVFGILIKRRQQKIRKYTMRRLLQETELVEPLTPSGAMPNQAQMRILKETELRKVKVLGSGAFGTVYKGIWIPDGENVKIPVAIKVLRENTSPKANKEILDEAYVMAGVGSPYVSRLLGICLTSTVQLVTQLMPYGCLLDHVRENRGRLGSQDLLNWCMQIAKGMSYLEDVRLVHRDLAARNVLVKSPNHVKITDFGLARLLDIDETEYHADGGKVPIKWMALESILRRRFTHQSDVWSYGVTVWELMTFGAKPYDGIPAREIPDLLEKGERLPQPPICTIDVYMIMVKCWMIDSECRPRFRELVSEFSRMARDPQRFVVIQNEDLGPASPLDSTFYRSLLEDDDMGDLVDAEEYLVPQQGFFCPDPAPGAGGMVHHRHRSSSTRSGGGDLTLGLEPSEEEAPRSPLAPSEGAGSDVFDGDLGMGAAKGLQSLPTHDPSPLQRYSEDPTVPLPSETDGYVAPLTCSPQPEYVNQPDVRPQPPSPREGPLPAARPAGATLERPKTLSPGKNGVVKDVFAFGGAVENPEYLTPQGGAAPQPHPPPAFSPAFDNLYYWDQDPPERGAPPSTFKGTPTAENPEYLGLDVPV
Assay [11] concerns the target T3, Testis-specific serine/threonine-protein kinase 2 (Homo sapiens) (UniProt Q96PF2).
T3 sequence (whole entry): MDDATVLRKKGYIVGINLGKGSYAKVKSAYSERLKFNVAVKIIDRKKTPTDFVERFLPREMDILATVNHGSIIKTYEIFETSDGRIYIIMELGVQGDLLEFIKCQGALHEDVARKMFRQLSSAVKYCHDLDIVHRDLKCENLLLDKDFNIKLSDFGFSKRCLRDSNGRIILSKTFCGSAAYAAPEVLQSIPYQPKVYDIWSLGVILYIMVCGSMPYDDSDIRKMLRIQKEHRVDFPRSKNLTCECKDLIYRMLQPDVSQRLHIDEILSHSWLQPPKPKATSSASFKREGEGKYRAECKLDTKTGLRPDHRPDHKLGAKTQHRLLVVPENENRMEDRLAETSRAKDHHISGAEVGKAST
As to the kind of experiment: Inhibition of human TSSK2 at 500 nM by HotSpot assay relative to control.

The target in assay [12] is T4, Serine/threonine-protein kinase DCLK2 (Homo sapiens) (UniProt Q8N568).
T4 sequence (whole entry): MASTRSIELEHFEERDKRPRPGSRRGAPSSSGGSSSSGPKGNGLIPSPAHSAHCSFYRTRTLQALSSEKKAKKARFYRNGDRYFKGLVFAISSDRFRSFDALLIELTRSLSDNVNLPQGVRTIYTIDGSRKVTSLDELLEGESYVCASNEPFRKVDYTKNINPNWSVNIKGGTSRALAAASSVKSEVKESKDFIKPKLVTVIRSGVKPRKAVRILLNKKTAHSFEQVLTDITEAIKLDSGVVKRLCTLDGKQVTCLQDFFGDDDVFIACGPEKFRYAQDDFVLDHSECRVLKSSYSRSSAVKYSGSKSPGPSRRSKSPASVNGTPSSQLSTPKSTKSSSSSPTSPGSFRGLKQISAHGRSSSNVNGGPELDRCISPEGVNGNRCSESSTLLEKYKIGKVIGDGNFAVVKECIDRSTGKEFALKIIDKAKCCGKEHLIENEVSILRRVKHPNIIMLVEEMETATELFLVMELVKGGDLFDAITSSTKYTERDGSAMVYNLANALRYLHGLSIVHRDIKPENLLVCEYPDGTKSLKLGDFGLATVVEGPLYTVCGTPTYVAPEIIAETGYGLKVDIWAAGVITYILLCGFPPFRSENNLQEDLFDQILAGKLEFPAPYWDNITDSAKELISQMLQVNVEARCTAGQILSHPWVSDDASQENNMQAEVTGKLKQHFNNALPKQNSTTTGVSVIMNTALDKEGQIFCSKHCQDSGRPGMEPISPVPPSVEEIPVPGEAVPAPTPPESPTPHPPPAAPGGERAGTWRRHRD
The assay is described as follows: Inhibition of human DCAMKL2 at 500 nM by HotSpot assay relative to control.

The target of assay [13] is Ephrin type-A receptor 5 (Homo sapiens) (UniProt P54756). The assay is described as follows: Inhibition of human EPHA5 at 500 nM by HotSpot assay relative to control.
Ephrin type-A receptor 5 (Homo sapiens), sequence (P54756 whole entry): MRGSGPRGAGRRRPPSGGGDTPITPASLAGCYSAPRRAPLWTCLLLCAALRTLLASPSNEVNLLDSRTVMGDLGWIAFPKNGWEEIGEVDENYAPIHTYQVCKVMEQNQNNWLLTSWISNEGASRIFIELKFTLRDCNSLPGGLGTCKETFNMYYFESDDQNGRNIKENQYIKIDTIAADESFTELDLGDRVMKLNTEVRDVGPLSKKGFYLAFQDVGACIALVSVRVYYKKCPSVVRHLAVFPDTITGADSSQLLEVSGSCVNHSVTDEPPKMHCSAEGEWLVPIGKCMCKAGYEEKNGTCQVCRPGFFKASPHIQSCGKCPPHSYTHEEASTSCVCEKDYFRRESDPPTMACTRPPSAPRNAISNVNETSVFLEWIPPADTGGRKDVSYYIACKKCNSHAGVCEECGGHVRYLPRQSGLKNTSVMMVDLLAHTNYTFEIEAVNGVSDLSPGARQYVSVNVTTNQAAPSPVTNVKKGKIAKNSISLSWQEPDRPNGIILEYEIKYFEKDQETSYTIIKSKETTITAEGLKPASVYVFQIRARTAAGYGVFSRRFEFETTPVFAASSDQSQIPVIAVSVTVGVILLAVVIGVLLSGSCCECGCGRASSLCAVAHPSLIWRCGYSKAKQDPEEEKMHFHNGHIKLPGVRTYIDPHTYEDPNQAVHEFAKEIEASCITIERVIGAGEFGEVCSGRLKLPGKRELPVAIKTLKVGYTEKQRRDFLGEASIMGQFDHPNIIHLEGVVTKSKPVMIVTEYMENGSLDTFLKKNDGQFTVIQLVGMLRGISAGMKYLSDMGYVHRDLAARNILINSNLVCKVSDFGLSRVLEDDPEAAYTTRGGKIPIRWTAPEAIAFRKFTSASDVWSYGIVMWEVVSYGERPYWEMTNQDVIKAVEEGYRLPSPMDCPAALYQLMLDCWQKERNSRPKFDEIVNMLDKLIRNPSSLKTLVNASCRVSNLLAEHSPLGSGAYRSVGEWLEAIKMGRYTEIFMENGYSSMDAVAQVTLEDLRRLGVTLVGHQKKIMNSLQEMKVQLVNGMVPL
Assay [14] has as its target Angiopoietin-1 receptor (Homo sapiens) (UniProt Q02763). As to the kind of experiment: Inhibition of human TEK at 500 nM by HotSpot assay relative to control.

The structures appear in SMILES notation. Active and inactive are the calls of the source. The calls are words filed in the database; no cut-off is given here.

RAC-beta serine/threonine-protein kinase (Homo sapiens), sequence (P31751 whole entry): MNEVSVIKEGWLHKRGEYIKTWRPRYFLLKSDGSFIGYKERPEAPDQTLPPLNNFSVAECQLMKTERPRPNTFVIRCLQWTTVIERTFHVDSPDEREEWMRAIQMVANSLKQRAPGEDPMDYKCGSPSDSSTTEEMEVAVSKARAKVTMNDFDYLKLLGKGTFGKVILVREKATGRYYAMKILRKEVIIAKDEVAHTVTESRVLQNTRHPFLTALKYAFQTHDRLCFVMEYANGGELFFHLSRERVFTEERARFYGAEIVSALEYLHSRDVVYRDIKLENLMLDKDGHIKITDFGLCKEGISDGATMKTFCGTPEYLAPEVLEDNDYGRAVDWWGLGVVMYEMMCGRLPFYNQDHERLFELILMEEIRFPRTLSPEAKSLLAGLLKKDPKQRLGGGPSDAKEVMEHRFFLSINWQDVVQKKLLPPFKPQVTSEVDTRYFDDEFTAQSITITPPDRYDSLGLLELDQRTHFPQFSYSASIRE
Casein kinase II subunit alpha' (Homo sapiens), sequence (P19784 whole entry, looked up, canonical isoform): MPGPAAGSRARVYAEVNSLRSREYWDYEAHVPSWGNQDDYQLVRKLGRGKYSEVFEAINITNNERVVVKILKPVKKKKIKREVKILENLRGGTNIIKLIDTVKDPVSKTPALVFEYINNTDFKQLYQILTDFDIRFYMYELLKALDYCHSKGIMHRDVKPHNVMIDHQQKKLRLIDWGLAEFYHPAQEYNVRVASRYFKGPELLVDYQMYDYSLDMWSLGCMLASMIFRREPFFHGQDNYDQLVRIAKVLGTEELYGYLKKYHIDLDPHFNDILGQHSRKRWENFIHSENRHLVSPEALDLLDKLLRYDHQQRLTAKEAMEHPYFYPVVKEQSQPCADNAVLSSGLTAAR
Serine/threonine-protein kinase OSR1 (Homo sapiens), sequence (O95747 whole entry, looked up): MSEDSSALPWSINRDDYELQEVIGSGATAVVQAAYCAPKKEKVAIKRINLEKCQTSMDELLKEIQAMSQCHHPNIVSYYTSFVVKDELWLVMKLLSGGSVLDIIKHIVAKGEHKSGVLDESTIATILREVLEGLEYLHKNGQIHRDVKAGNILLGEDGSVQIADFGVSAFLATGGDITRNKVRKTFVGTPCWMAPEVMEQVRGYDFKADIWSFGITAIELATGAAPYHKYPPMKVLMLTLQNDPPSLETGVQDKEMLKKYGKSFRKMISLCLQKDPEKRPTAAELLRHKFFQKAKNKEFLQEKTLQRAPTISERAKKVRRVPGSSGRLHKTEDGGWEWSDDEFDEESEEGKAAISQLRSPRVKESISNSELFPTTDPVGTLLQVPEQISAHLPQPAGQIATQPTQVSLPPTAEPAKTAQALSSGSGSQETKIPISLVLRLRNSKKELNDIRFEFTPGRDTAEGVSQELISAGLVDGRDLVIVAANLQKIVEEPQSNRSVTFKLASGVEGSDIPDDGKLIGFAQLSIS

As a reminder, the inhibition is the relative decrease from the control value, in per cent. For the compound `Nc1n[nH]c2nnc(-c3c(-c4ccccc4)nn4ccccc34)cc12`, the inhibition in assay [1] was 6.59%; in [2], 17.4%; in assay [3], -1.14%; in assay [5], 3.29%; in assay [6] it was -2.39%; in assay [7] it was 10.9%. Moreover, the inhibition in assay [8] is 42.5%; in assay [9], 2.47%; in assay [10] it was -4.95%; in assay [11] it was -4.17%; in assay [12] it was -0.33%; in [13], -0.54%. The inhibition in assay [14] came out at 3.45%. Moreover, the inhibition result in [4] is “Active”.

Take `Oc1n[nH]c2nnc(-c3c(-c4ccccc4)nn4ccccc34)cc12`: the inhibition in [1] was 6.97%; in assay [2], 8.79%; in [3], 1.69%; in assay [5] it was 6.89%; in assay [6], -8.54%; in assay [7], 7.91%. The inhibition in assay [8] is 3.05%; in assay [9], -5.44%; in [10], -4.85%; in assay [11] it was -1.61%; in assay [12] it was 0.11%; in assay [13], -0.84%. Moreover, the inhibition in assay [14] is 4.05%. For the same compound, the inhibition result in [4] was “Active”.
